According to US20210113501A1, “METHOD OF ADMINISTERING BETA-HYDROXY-BETA-METHYLBUTYRATE (HMB)” (Metabolic Technologies, Inc., priority 2009, published 2021):

Assay: Study 2 hematology
Assay type: in vivo, human
Conditions: for Basophils (absolute) % Change / Basophils, % - % Change / Eosinophils (absolute) % Change / Eosinophils, % - % Change / Hematocrit % Change / Hemoglobin % Change / Lymphocytes (absolute) % Change / Lymphocytes, % - % Change / MCH % Change / MCHC % Change / MCV % Change / Monocytes (absolute) % Change / Monocytes, % - % Change / Neutrophils (absolute) % Change / Neutrophils, % - % Change / Platelets % Change / RBC % Change / RDW % Change / WBC % Change: Before to After
Procedure: Study 2 design. Study 2 was conducted similar to study 1 with the following modifications. In study 2, plasma levels of HMB were measured for 1440 min (24 h) and total urine collection was also performed for measurement of urinary HMB excretion during this period. After the 180 min blood sample, the subjects were allowed to leave the laboratory and were instructed to return to the laboratory for additional blood samples at 360, 720, and 1440 min after the ingestion of the supplement. As in study 1, each subject took each of the treatments with at least a one week washout period between treatments. Samples were again stored frozen at −70° C. for analysis of plasma and urinary HMB concentrations. Pre-ingestion, 180 min and 1440 min blood samples were again assayed for the same measurements already for study 1. Subjects were provided with a standardized lunch after the 180 min blood sampling and instructed to eat this at approximately 240 min post ingestion. Following the 720 min blood sample, subjects were instructed to eat a normal evening meal before 10 pm. Subjects reported back to the laboratory the following morning for the fasted 1440 min blood sample. A urine collection container was provided and subjects collected all urine produced during the experimental 24 h experimental period. The urine was stored refrigerated when not being collected. Urine volumes were measured and samples of the total urine collection were taken and stored frozen at −70° C. until analyzed for HMB.
The data were analyzed using a crossover design with Proc GLM in SAS. (45) For the timed sampling of plasma HMB a repeated measures polynomial model was used. The model included subject, order, and treatment main effects and time by treatment interaction where appropriate. For other parameters Proc GLM was also used with subject, order, and treatment main effects and the p values are reported for the treatment main effect. Statistical significance was determined for p<0.05 and a trend was determined for 0.05<p<0.10.

CC(C)(O)CC(=O)O [HMB-Acid Gel Sublingual, 3-hydroxy-3-methylbutyric acid]
Basophils (absolute) (After (24 h)): 0.04 ± 0.0 ×10^3/μL
Basophils, % (After (24 h)): 0.4 ± 0.2%
Eosinophils (absolute) (After (24 h)): 0.2 ± 0.03 ×10^3/μL
Eosinophils, % (After (24 h)): 3.3 ± 0.5%
Hematocrit (After (24 h)): 38.6 ± 1.3%
Hemoglobin (After (24 h)): 13.2 ± 0.5 g/dL
Lymphocytes (absolute) (After (24 h)): 3.1 ± 0.3 ×10^3/μL
Lymphocytes, % (After (24 h)): 45.6 ± 3.4%
MCH (After (24 h)): 30.5 ± 0.5 pg
MCHC (After (24 h)): 34.5 ± 0.2 g/dL
MCV (After (24 h)): 89.3 ± 1.4 fL
Monocytes (absolute) (After (24 h)): 0.6 ± 0.05 ×10^3/μL
Monocytes, % (After (24 h)): 8.4 ± 0.9%
Neutrophils (absolute) (After (24 h)): 2.9 ± 0.3 ×10^3/μL
Neutrophils, % (After (24 h)): 42.4 ± 3.5%
Platelets (After (24 h)): 244.3 ± 17.5 ×10^3/μL
RBC (After (24 h)): 4.3 ± 0.1 ×10^6/µL
RDW (After (24 h)): 13.4 ± 0.2%
WBC (After (24 h)): 6.8 ± 0.3 ×10^3/μL
Basophils (absolute) (Before): 0.06 ± 0.02 ×10^3/μL
Basophils, % (Before): 0.6 ± 0.2%
Eosinophils (absolute) (Before): 0.2 ± 0.04 ×10^3/μL
Eosinophils, % (Before): 2.5 ± 0.5%
Hematocrit (Before): 37.5 ± 1.4%
Hemoglobin (Before): 13.2 ± 0.5 g/dL
Lymphocytes (absolute) (Before): 3.0 ± 0.3 ×10^3/μL
Lymphocytes, % (Before): 43.1 ± 4.2%
MCH (Before): 30.4 ± 0.5 pg
MCHC (Before): 34.5 ± 0.2 g/dL
MCV (Before): 88.4 ± 1.5 fL
Monocytes (absolute) (Before): 0.6 ± 0.05 ×10^3/μL
Monocytes, % (Before): 8.3 ± 1.0%
Neutrophils (absolute) (Before): 3.3 ± 0.5 ×10^3/μL
Neutrophils, % (Before): 45.3 ± 5.2%
Platelets (Before): 233.8 ± 14.2 ×10^3/μL
RBC (Before): 4.3 ± 0.1 ×10^6/µL
RDW (Before): 13.3 ± 0.2%
WBC (Before): 7.1 ± 0.4 ×10^3/μL
Basophils (absolute) % Change: −40.0%
Basophils, % - % Change: −40.0%
Eosinophils (absolute) % Change: 35.7%
Eosinophils, % - % Change: 30.0%
Hematocrit % Change: 2.9%
Hemoglobin % Change: 0.4%
Lymphocytes (absolute) % Change: 5.0%
Lymphocytes, % - % Change: 5.8%
MCH % Change: 0.3%
MCHC % Change: 0.1%
MCV % Change: 1.0%
Monocytes (absolute) % Change: 0.0%
Monocytes, % - % Change: 1.5%
Neutrophils (absolute) % Change: −12.1%
Neutrophils, % - % Change: −6.4%
Platelets % Change: 4.5%
RBC % Change: 0.1%
RDW % Change: 0.7%
WBC % Change: −3.5%

CC(C)(O)CC(=O)[O-].CC(C)(O)CC(=O)[O-].[Ca+2] [CaHMB, calcium β-hydroxy-β-methylbutryate, reference compound]
Basophils (absolute) (After (24 h)): 0.06 ± 0.02 ×10^3/μL
Basophils, % (After (24 h)): 0.8 ± 0.2%
Eosinophils (absolute) (After (24 h)): 0.2 ± 0.03 ×10^3/μL
Eosinophils, % (After (24 h)): 2.6 ± 0.4%
Hematocrit (After (24 h)): 38.3 ± 1.7%
Hemoglobin (After (24 h)): 13.3 ± 0.6 g/dL
Lymphocytes (absolute) (After (24 h)): 2.8 ± 0.3 ×10^3/μL
Lymphocytes, % (After (24 h)): 42.5 ± 3.5%
MCH (After (24 h)): 30.7 ± 0.6 pg
MCHC (After (24 h)): 34.7 ± 0.2 g/dL
MCV (After (24 h)): 88.5 ± 1.4 fL
Monocytes (absolute) (After (24 h)): 0.5 ± 0.1 ×10^3/μL
Monocytes, % (After (24 h)): 8.5 ± 1.5%
Neutrophils (absolute) (After (24 h)): 3.0 ± 0.2 ×10^3/μL
Neutrophils, % (After (24 h)): 45.6 ± 3.3%
Platelets (After (24 h)): 235.9 ± 10.9 ×10^3/μL
RBC (After (24 h)): 4.3 ± 0.2 ×10^6/µL
RDW (After (24 h)): 13.4 ± 0.1%
WBC (After (24 h)): 6.5 ± 0.3 ×10^3/μL
Basophils (absolute) (Before): 0.06 ± 0.02 ×10^3/μL
Basophils, % (Before): 0.6 ± 0.2%
Eosinophils (absolute) (Before): 0.2 ± 0.04 ×10^3/μL
Eosinophils, % (Before): 2.9 ± 0.5%
Hematocrit (Before): 38.1 ± 1.8%
Hemoglobin (Before): 13.2 ± 0.7 g/dL
Lymphocytes (absolute) (Before): 3.3 ± 0.3 ×10^3/μL
Lymphocytes, % (Before): 44.8 ± 3.2%
MCH (Before): 30.6 ± 0.5 pg
MCHC (Before): 34.7 ± 0.2 g/dL
MCV (Before): 88.4 ± 1.5 fL
Monocytes (absolute) (Before): 0.5 ± 0.1 ×10^3/μL
Monocytes, % (Before): 6.9 ± 0.9%
Neutrophils (absolute) (Before): 3.3 ± 0.3 ×10^3/μL
Neutrophils, % (Before): 44.9 ± 3.8%
Platelets (Before): 228.0 ± 17.6 ×10^3/μL
RBC (Before): 4.3 ± 0.2 ×10^6/µL
RDW (Before): 13.4 ± 0.2%
Basophils (absolute) % Change: 0.0%
Basophils, % - % Change: 20.0%
Eosinophils (absolute) % Change: −12.5%
Eosinophils, % - % Change: −8.7%
Hematocrit % Change: 0.7%
Hemoglobin % Change: 0.7%
Lymphocytes (absolute) % Change: −13.5%
Lymphocytes, % - % Change: −5.0%
MCH % Change: 0.2%
MCHC % Change: 0.0%
MCV % Change: 0.1%
Monocytes (absolute) % Change: 5.0%
Monocytes, % - % Change: 23.6%
Neutrophils (absolute) % Change: −9.9%
Neutrophils, % - % Change: 1.7%
Platelets % Change: 3.5%
RBC % Change: 0.7%
RDW % Change: −0.1%
WBC % Change: −10.5%

CC(C)(O)CC(=O)O [HMB-Acid Gel Swallow, 3-hydroxy-3-methylbutyric acid]
Basophils (absolute) (After (24 h)): 0.09 ± 0.03 ×10^3/μL
Basophils, % (After (24 h)): 0.9 ± 0.3%
Eosinophils (absolute) (After (24 h)): 0.2 ± 0.04 ×10^3/μL
Eosinophils, % (After (24 h)): 3.0 ± 0.5%
Hematocrit (After (24 h)): 38.9 ± 1.1%
Hemoglobin (After (24 h)): 13.4 ± 0.4 g/dL
Lymphocytes (absolute) (After (24 h)): 3.1 ± 0.3 ×10^3/μL
Lymphocytes, % (After (24 h)): 43.3 ± 3.9%
MCH (After (24 h)): 30.5 ± 0.6 pg
MCHC (After (24 h)): 34.5 ± 0.2 g/dL
MCV (After (24 h)): 88.6 ± 1.5 fL
Monocytes (absolute) (After (24 h)): 0.5 ± 0.04 ×10^3/μL
Monocytes, % (After (24 h)): 6.9 ± 0.8%
Neutrophils (absolute) (After (24 h)): 3.3 ± 0.4 ×10^3/μL
Neutrophils, % (After (24 h)): 46.0 ± 4.4%
Platelets (After (24 h)): 242.4 ± 12.2 ×10^3/μL
RBC (After (24 h)): 4.4 ± 0.1 ×10^6/µL
RDW (After (24 h)): 13.2 ± 0.2%
WBC (After (24 h)): 7.1 ± 0.3 ×10^3/μL
Basophils (absolute) (Before): 0.05 ± 0.02 ×10^3/μL
Basophils, % (Before): 0.5 ± 0.2%
Eosinophils (absolute) (Before): 0.2 ± 0.03 ×10^3/μL
Eosinophils, % (Before): 2.8 ± 0.5%
Hematocrit (Before): 37.4 ± 1.0%
Hemoglobin (Before): 13.0 ± 0.4 g/dL
Lymphocytes (absolute) (Before): 2.8 ± 0.2 ×10^3/μL
Lymphocytes, % (Before): 43.6 ± 2.4%
MCH (Before): 30.6 ± 0.6 pg
MCHC (Before): 34.8 ± 0.2 g/dL
MCV (Before): 88.1 ± 1.5 fL
Monocytes (absolute) (Before): 0.5 ± 0.1 ×10^3/μL
Monocytes, % (Before): 7.5 ± 1.1%
Neutrophils (absolute) (Before): 2.9 ± 0.2 ×10^3/μL
Neutrophils, % (Before): 45.6 ± 2.7%
Platelets (Before): 229.0 ± 12.9 ×10^3/μL
RBC (Before): 4.2 ± 0.1 ×10^6/µL
RDW (Before): 13.3 ± 0.2%
WBC (Before): 6.4 ± 0.3 ×10^3/μL
Basophils (absolute) % Change: 75.0%
Basophils, % - % Change: 75.0%
Eosinophils (absolute) % Change: 13.3%
Eosinophils, % - % Change: 9.1%
Hematocrit % Change: 4.2%
Hemoglobin % Change: 3.2%
Lymphocytes (absolute) % Change: 9.4%
Lymphocytes, % - % Change: −0.9%
MCH % Change: −0.3%
MCHC % Change: −0.8%
MCV % Change: 0.6%
Monocytes (absolute) % Change: 2.6%
Monocytes, % - % Change: −8.3%
Neutrophils (absolute) % Change: 10.6%
Neutrophils, % - % Change: 0.8%
Platelets % Change: 5.8%
RBC % Change: 3.5%
RDW % Change: −0.5%
WBC % Change: 9.7%
